Values quoted from earlier work in US12161629B2, “Methods and compositions for treatment of glaucoma and related conditions” (Opus Genetics, Inc., priority 2018, dated 2024).
Structures can show the parent of a compound that is named as a salt. Where two headings read alike, the source gives them in different places.

Assays:
[1] = system: alpha-1 adrenergic receptor

Compound | inhibitory activity, alpha-1 versus alpha-2 adrenergic receptor [1] | effect on intraocular pressure (eyes of patients; in patients, Hara et al., Cardiovascular Drug Reviews (2005)) | effect on intraocular pressure (eyes of patients; in normotensive eyes or in eyes with elevated intraocular pressure)
CCCC(=O)N1CCCN(c2nc(N)c3cc(OC)c(OC)cc3n2)CC1 [bunazosin] | greater inhibitory activity towards (i) the alpha-1 adrenergic receptor compared to the (ii) alpha-2 adrenergic receptor | decreased intraocular pressure in patients | –
Cc1ccccc1N1CCN(CCc2nnc3n2CCCC3)CC1 [dapiprazole hydrochloride] | – | – | not significantly alter intraocular pressure
